Ki data for 17 compounds are collected here from patent publication US12297210B2, “Naphthyridine compounds and uses thereof” (Genentech, Inc., priority 2018, dated 2025).

Where only a bound is given, the exact number is not on record here.

A word on the Ki: it is the dissociation constant of the complex between target and ligand, obtained from inhibition or displacement.

The target of the first assay is T1, HPK full length, T165E S171E (Homo sapiens, UniProt Q92918, S171E/T165E).
T1 construct: HPK full length, T165E S171E: 0.125 nM
T1 sequence (Q92918 whole entry T165E/S171E): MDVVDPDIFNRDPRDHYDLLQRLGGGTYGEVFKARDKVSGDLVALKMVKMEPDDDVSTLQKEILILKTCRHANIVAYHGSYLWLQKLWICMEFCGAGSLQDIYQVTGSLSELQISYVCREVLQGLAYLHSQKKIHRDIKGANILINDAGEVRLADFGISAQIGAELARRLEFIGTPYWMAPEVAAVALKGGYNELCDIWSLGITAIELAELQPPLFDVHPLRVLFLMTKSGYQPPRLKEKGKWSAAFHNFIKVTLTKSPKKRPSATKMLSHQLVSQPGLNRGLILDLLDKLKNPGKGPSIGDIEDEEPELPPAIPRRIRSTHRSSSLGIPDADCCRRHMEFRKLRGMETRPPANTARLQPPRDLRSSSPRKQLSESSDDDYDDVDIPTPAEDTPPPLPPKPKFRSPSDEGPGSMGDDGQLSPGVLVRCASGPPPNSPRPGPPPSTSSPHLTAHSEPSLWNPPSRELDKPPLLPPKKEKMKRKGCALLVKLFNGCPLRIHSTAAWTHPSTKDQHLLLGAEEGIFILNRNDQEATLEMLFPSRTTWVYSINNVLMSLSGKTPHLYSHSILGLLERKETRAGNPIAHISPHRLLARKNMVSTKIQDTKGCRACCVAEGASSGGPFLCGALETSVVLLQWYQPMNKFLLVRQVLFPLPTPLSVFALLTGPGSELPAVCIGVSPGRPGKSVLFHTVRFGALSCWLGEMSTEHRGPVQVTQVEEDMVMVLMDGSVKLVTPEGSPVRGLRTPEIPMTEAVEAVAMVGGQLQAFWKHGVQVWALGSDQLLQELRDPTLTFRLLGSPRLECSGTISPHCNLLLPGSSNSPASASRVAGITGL
Kind of assay: HPK1-FL HTRF Enzymatic Assay ("HTRF"). As to conditions: ATP 1 mM, read-out: HPK1 Ki (nM) H = HTRF. It is filed as biochemical. How it is done:
Example B1: HPK1-FL HTRF Enzymatic Assay (“HTRF”)
HPK-FL enzyme phosphorylates Biotin-SLP-76 substrate in the presence of ATP at 1 mM and varying concentrations of test compound. Product is detected by FRET using Eu-anti-pSLP76 Ab and SA-XL665. Also see www.cisbio.com/HTRF for additional HTRF technology information.
• Echo555 compound dispenser • Agilent Bravo • Perkin Elmer Envision Final Assay Conditions: • HPK full length, T165E S171E: 0.125 nM • Biotin-SLP76: 100 nM • ATP: 1 mM (ATP Km=20 μM) • Eu-anti-pSLP76: 2 nM • SA-XL665: 8.3 nM • Preincubation time: 30 min • Kinase reaction time: 60 min • Temperature: ambient • Total volume: 12 μl • ATP^app Km: 17.7 μM Materials: • Assay plate: White ProxiPlate 384 F (PerkinElmer cat #6008289) • Kinase: HPK full length double mutant • Substrate: Biotin-SLP76 • ATP: 100 mM ATP • BSG: 2% BSG • DMSO: DMSO(Sigma cat #34869-100ML) • Reaction Buffer: H2O/50 mM HEPES, pH 7.5/10 mM MgCl2/2 mM TCEP/0.01% Brij-35/0.01% BSG • Detection mix: Eu-anti-pSLP76/SA-XL665 (Cisbio, #610SAXAC) Assay Procedure Ki Determination:
To a 384 well Proxiplate with 80 nL compound or DMSO spotted on was added 4 μl/well kinase mix. The mixture was preincubated for 30 minutes and then 4 μl/well substrate mix was added. The solution was incubated for 60 min and then 4 μl/well detection mix was added. The solution was incubated for another 60 min. The plates were then loaded onto a Perkin Elmer Envision and the TR-FRET signal was measured at 615 and 665 nm. A ratio of […] was used to calculate the % activity at each concentration of compound.
A general note: In TR-FRET formats the signal depends on donor and acceptor labels being close together.
Take `Cc1c(N)cncc1-c1cc2cc(Nc3cc4n(n3)CC(=O)N(CC(F)F)CC4)ncc2cn1` [Compound 102, 2-((6-(5-amino-4-methylpyridin-3-yl)-2,7-naphthyridin-3-yl)amino)-6-(2,2-difluoroethyl)-5,6-dihydro-4H-pyrazolo[1,5-d][1,4]diazepin-7(8H)-one]: the Ki amounted to 4 nM.
As to `Cc1c(N)cncc1-c1cc2cc(Nc3cc4n(n3)CC(=O)N(C(C)C)CC4)ncc2cn1` [Compound 104, 2-((6-(5-amino-4-methylpyridin-3-yl)-2,7-naphthyridin-3-yl)amino)-6-isopropyl-5,6-dihydro-4H-pyrazolo[1,5-d][1,4]diazepin-7(8H)-one], the Ki is 2.3 nM.
Regarding `Cc1c(N)cncc1-c1cc2cc(Nc3cc4n(n3)Cc3nccn3CC4)ncc2c(C)n1` [Compound 105, N-(6-(5-amino-4-methylpyridin-3-yl)-8-methyl-2,7-naphthyridin-3-yl)-5,6-dihydro-11H-imidazo[1,2-a]pyrazolo[1,5-d][1,4]diazepin-8-amine], the Ki amounted to 0.85 nM.
As for `Cc1c(N)cncc1-c1cc2cc(Nc3cc4n(n3)CC(=O)N(C(C)C)CC4)ncc2c(C)n1` [Compound 106, 2-((6-(5-amino-4-methylpyridin-3-yl)-8-methyl-2,7-naphthyridin-3-yl)amino)-6-isopropyl-5,6-dihydro-4H-pyrazolo[1,5-d][1,4]diazepin-7(8H)-one], the Ki is 2.5 nM.
Regarding `COc1nc(-c2cnc3c(c2C)NCCO3)cc2cc(Nc3cc4n(n3)CC(=O)N(C)CC4)ncc12` [Compound 107, 2-((8-methoxy-6-(8-methyl-2,3-dihydro-1H-pyrido[2,3-b][1,4]oxazin-7-yl)-2,7-naphthyridin-3-yl)amino)-6-methyl-5,6-dihydro-4H-pyrazolo[1,5-d][1,4]diazepin-7(8H)-one], the Ki turned out to be 2.1 nM.
Regarding `Cc1c(-c2cc3cc(Nc4cc5n(n4)CC(=O)N(C)CC5)ncc3c(C)n2)cnc2c1NCCO2` [Compound 108, 6-methyl-2-((8-methyl-6-(8-methyl-2,3-dihydro-1H-pyrido[2,3-b][1,4]oxazin-7-yl)-2,7-naphthyridin-3-yl)amino)-5,6-dihydro-4H-pyrazolo[1,5-d][1,4]diazepin-7(8H)-one], the Ki turned out to be 0.66 nM.
For `Cc1c(-c2cc3cc(Nc4cc5n(n4)CC(=O)N(C)CC54CC4)ncc3c(C)n2)cnc2c1NCCO2` [Compound 109, 6′-methyl-2′-((8-methyl-6-(8-methyl-2,3-dihydro-1H-pyrido[2,3-b][1,4]oxazin-7-yl)-2,7-naphthyridin-3-yl)amino)-5′,6′-dihydrospiro[cyclopropane-1,4′-pyrazolo[1,5-d][1,4]diazepin]-7′(8′H)-one], the Ki stood at 0.03 nM.
Regarding `CNCc1cc(C)c(-c2cc3cc(Nc4cc5n(n4)CC(=O)N(C)CC5)ncc3cn2)c(F)c1` [Compound 110, 2-((6-(2-fluoro-6-methyl-4-((methylamino)methyl)phenyl)-2,7-naphthyridin-3-yl)amino)-6-methyl-5,6-dihydro-4H-pyrazolo[1,5-d][1,4]diazepin-7(8H)-one], the Ki came out at 13 nM.
The same measure, in the same setting: then `Cc1ccncc1-c1cc2cc(Nc3cc(C(=O)N(C)C)c(N)cn3)ncc2cn1` [Compound 201, 5-amino-N,N-dimethyl-2-((6-(4-methylpyridin-3-yl)-2,7-naphthyridin-3-yl)amino)isonicotinamide], with 463 nM; and `Cc1ccncc1-c1cc2cc(Nc3ccc(S(C)(=O)=O)cn3)ncc2cn1` [Compound 202, 6-(4-methylpyridin-3-yl)-N-(5-(methylsulfonyl)pyridin-2-yl)-2,7-naphthyridin-3-amine], with 291 nM; and `Cc1ccncc1-c1cc2cc(Nc3ccc(CO)cn3)ncc2cn1` [Compound 206, (6-((6-(4-methylpyridin-3-yl)-2,7-naphthyridin-3-yl)amino)pyridin-3-yl)methanol], with 577 nM.
For `Cc1cc(Nc2cc3cc(C4CC4)ncc3cn2)ncn1` [Compound 209, 6-cyclopropyl-N-(6-methylpyrimidin-4-yl)-2,7-naphthyridin-3-amine], the Ki was more than 2000 nM.

In another assay the target is T2, HPK1 (Homo sapiens, UniProt Q92918).
T2 construct: purchased Signalchem M23-11G
T2 sequence (Q92918 1-346 limits assumed): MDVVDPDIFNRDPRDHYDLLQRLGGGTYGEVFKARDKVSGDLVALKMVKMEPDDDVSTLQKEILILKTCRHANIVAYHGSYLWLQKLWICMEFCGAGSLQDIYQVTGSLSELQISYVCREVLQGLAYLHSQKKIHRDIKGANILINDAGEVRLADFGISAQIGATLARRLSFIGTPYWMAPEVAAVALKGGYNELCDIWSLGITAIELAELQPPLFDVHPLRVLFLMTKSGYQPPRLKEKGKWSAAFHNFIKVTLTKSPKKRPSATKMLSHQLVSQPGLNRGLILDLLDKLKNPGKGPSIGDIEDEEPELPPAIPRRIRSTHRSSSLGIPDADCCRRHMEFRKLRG
Kind of assay: HPK1 Lantha Binding Assay ("Lanth"). As to conditions: 15 nM Tracer222, read-out: HPK1 Ki (nM) L = Lanth. The method, then: Example B2: HPK1 Lantha Binding Assay (“Lanth”)
The compounds to be tested were diluted by preparing 12.5 uL/well of 5 mM compound (100×) in columns 2 and 13 and 10 ul/well of DMSO in columns 3-12, 14-23, and wells A1-H1 and I24-P24 of the compound plate using a Bravo liquid handling platform. For the reference compound, the top concentration was 1 mM. To the plate was added 10 ul 2 mM staurosporine in wells J1-P1 and A24-H24. A 11 point 5-fold compound serial dilution was performed using the Bravo liquid handling platform. From the plate were transferred 2.5 ul of the solutions from column 2 and column 13 to the 10 ul of DMSO in columns 3 and 14 & so on. The compound plate was centrifuged at 2500 rpm for 1 min. From the compound plate was transferred 80 nl of the compounds into an assay plate using the Echo liquid handler system. One compound plate makes two assay plates. Each assay plate is sealed and stored in an N2 cabinet.
The following assay concentrations and times were used: 2 nM HPK1, 2 nM Eu-Anti-GST Ab, and 15 nM Tracer222, with 60 min incubation time.
For the binding assay, 4 ul 2×HPK1 and Eu-anti-GST antibody were added to each well of the assay plate using a Multidrop reagent dispenser. The solutions were incubated in a 23 C incubator for 1 h. To each well of the assay plate was added 4 ul 2×Tracer-222 using a Multidrop reagent dispenser. The solutions were again incubated in a 23 C incubator for 1 h. The results of the assay were read using an Envision plate reader with the following parameters: TR_FRET, 340ex/615 and 665em; 100 usec Delay; and 200 usec integration.
Compound Ki was analyzed using Morrison ki fit model in XL-fit • a. fit=(1−((((E+x)+(Ki*(1+(S/Kd))))−(((((E+x)+(Ki*(1+(S/Kd))))^2)−((4*E)*x))^0.5))/(2*E))) • res=(y-fit) • b. Parameters: • E=enzyme concentration • S=Tracer222 concentration, Kd=Tracer222 Kd • All measurements reported using the same units (uM)
Regarding `Cc1c(-c2cc3cc(Nc4cc5n(n4)CC(=O)N(C(C)C)CC5)ncc3cn2)cnc2c1NCCO2` [Compound 103, 6-isopropyl-2-((6-(8-methyl-2,3-dihydro-1H-pyrido[2,3-b][1,4]oxazin-7-yl)-2,7-naphthyridin-3-yl)amino)-5,6-dihydro-4H-pyrazolo[1,5-d][1,4]diazepin-7(8H)-one], the Ki was found to be 0.39 nM.
Regarding `Cc1ccncc1-c1cc2cc(Nc3ccc(C(=O)N(C)C)cn3)ncc2cn1` [Compound 204, N,N-dimethyl-6-((6-(4-methylpyridin-3-yl)-2,7-naphthyridin-3-yl)amino)nicotinamide], the Ki amounted to 24 nM.
Still for that read-out and setting: with `CNS(=O)(=O)c1ccc(Nc2cc3cc(-c4cnccc4C)ncc3cn2)nc1` [Compound 207, N-methyl-6-((6-(4-methylpyridin-3-yl)-2,7-naphthyridin-3-yl)amino)pyridine-3-sulfonamide] the figure was 11 nM; with `Cc1ccncc1-c1cc2cc(Nc3ccc(CCO)cn3)ncc2cn1` [Compound 208, 2-(6-((6-(4-methylpyridin-3-yl)-2,7-naphthyridin-3-yl)amino)pyridin-3-yl)ethan-1-ol], 28 nM; with `Cc1cc(Nc2cc3cc(-c4cnccc4C)ncc3cn2)nc(N)n1` [Compound 210, 6-methyl-N^4-(6-(4-methylpyridin-3-yl)-2,7-naphthyridin-3-yl)pyrimidine-2,4-diamine], 3.9 nM.
